Where “and” joins values, the source holds several entries; their conditions need not be identical. Equal values may be shown once. Read-outs that look alike come from different tables or passages of the source.
Legend:
[1] = system: CYP3A; settings: 25 mg RIL daily; cited from earlier work
[2] = system: CYP3A4/5; settings: cited from earlier work
[3] = cited from earlier work
[4] = system: markers of immune activation; settings: 10 mg bid for 5 weeks, virologically suppressed HIV+ participants; cited from earlier work
[5] = cited from earlier work; remark: listed apart in the source
[6] = cited from earlier work; remark: listed apart in the source

For `Cc1cc(/C=C/C#N)cc(C)c1Nc1ccnc(Nc2ccc(C#N)cc2)n1` [RIL, rilpivirine], which “effect on CYP3A-dependent drug metabolism” value [1] is on record?
The value was “did not alter”.

Which results are given for `O=C1Nc2ccc(Cl)cc2[C@@](C#CC2CC2)(C(F)(F)F)O1` [EFV, efavirenz]?
median increase in plasma 4β-OHCC/cholesterol ratio ([2]; 4th week after initiation of ART with EFV): 257%; median increase in plasma 4β-OHCC/cholesterol ratio ([2]; 16th week after initiation of ART with EFV): 291%; median increase in plasma 4β-OHCC/cholesterol ratio ([2]; 48th week after initiation of ART with EFV): 165%

Which “IIV Ka” value [3] does the source give for `N#CC[C@H](C1CCCC1)n1cc(-c2ncnc3[nH]ccc23)cn1` [ruxolitinib] here?
Its value is 75%.

And the “IIV V1” value [3]?
Its value is 28%.

And the “IIV V2/F” value [3]?
The value was 102%.

And the V2 [3]?
Its V2 is 11.2 L.

What about the “IIV CL/F” value ([3]; myelofibrosis patients) of the same molecule?
Its value is 39.1%.

What about the V1 ([3]; normalized to a mean body weight of 72.9 kg) of the same molecule?
The V1 was 58.6 L.

What about the “CL/F typical value (with EFV)” value (Model IV (separated CL/F by EFV status), participants administered ART with EFV (N = 14)) of the same molecule?
The value was 22.5 L/h and 21.2 L/h.

And the “IIV V1 ω^2” value (both, human, in vivo)?
The value was 0.0607.

And the “IOV F ω^2” value (both, human, in vivo)?
The value was 0.0669.

And the “IOV F ω^2” value (both, human, in vivo, po)?
Its value is 0.0567.

What about the “ruxolitinib CL/F with co-administered RIL regimens” value (co-administered RIL/FTC/TAF (N = 3) or RIL/FTC/TDF (N = 1)) of the same molecule?
Its value is “not increased”.

What about the “median post hoc estimated CL/F” value (men, wk1) of the same molecule?
The value was 16.0 L/h.

And the “median post hoc estimated CL/F” value (men, wk4/5)?
The value was 14.3 L/h.

What about the “geometric mean CL/F (post hoc, Model IV)” value (wk1, EFV/FTC/TDF group) of the same molecule?
The value was 22.3 L/h.

What about the “geometric mean CL/F (post hoc, Model IV)” value (wk1, INSTI group) of the same molecule?
Its value is 13.8 L/h.

What about the “mean post hoc predicted CL/F” value (wk1, N = 39) of the same molecule?
The value was 16.6 L/h.

And the “geometric mean CL/F (post hoc, Model IV)” value (wk4/5, EFV/FTC/TDF group)?
The value was 20.8 L/h.

What about the “geometric mean CL/F (post hoc, Model IV)” value (wk4/5, INSTI group) of the same molecule?
The value was 12.7 L/h.

And the “mean post hoc predicted CL/F” value (wk4/5, N = 37)?
Its value is 15.7 L/h.

What about the “median post hoc estimated CL/F” value (women, wk1) of the same molecule?
The value was 15.2 L/h.

What about the “median post hoc estimated CL/F” value (women, wk4/5) of the same molecule?
Its value is 13.6 L/h.

And the “markers of immune activation” value [4]?
The value was “significantly decreased”.

What about the “reduction of ruxolitinib CL/F” value ([5]; 10 mg ruxolitinib tablet with 200 mg bid ketoconazole, N = 16) of the same molecule?
The value was 91%.

And the “reduction of ruxolitinib CL/F” value ([5]; 10 mg ruxolitinib tablet with 500 mg erythromycin, N = 15)?
Its value is 21%.

And the “increase in ruxolitinib CL/F” value ([5]; 30 mg ruxolitinib tablet before and after 10 days of 600 mg rifampin, healthy participants N = 12)?
Its value is 71%.

And the orally absorbed [6]?
Its orally absorbed is > 95%.
